Laboratory results published in patent US4032625A, “Bone-seeking technetium-99m complex” (priority 1975, dated 1977).

Test: Distribution of 99mTc-EHDP and 85Sr in rabbits, simultaneous study (Example 2, Table 1)
Type: in vivo, New Zealand albino rabbits
Procedure: Adult New Zealand albino rabbits having an average weight of 3.8 kg were utilized. Strontium-85 was employed as a standard for comparison. […] Each dosage is contained in a volume of 1 ml.
The animals were sacrificed serially from 1 to 24 hours after injection and the activities in major organs were determined by counting multiple samples from each organ in a scintillation well counter (the technetium-99m counts were corrected for the Compton contributions from the strontium-85 activity in the technetium-99m energy window). Multiple samples were counted from the tibia, femur, spine and pelvic bones; the total activity in the skeleton was estimated by assuming the whole skeleton consisted of equal proportions by weight of tibia, spine, femur and pelvis and that the skeletal mass was 10% of the body weight. The red marrow was sampled from the femur and the total marrow was assumed to be 2.2% of the total body weight. Similarly, blood volume was assumed to be 7% and the skeletal muscle 43% of the body weight. The whole liver and both kidneys were weighed and multiple samples from each were counted to measure the total activity in each organ.
In another series of experiments carried out as described above, localization of technetium from its tin-phosphonate complex was determined in the callous of three week-old fractures of tibia in albino rabbits, again in comparison with strontium-85. Comparative radioassay of technetium-99m administered as the pertechnetate was measured in the callous of tibial fractures in rabbits at one and four hours after administration.

## [85Sr] [^85 Sr]
1 Hr
  % Dose in Whole Organ: Kidneys: 0.80 % dose
  % Dose in Whole Organ: Liver: 1.57 % dose
  % Dose in Whole Organ: One Femur: 1.04 % dose
  % Dose: Urine: 6.96 % dose
  % dose in whole organ: Blood (7% of body weight): 11.9 % dose
  % dose in whole organ: Bone(Avg) (10% of body weight): 56.0 % dose
  % dose in whole organ: Marrow (2.2% of body weight): 0.91 % dose
  % dose in whole organ: Muscle (43% of body weight): 13.4 % dose
  Bone/Muscle ratio: 19
  Ratio Bone/Blood: 3.4
  Ratio Bone/Marrow: 14
  Ratio Callus/N. Femur: 7
  Ratio Callus/N. Tibia: 9
  Ratio Plus/Blood: 18
2 Hrs
  % Dose in Whole Organ: Kidneys: 0.64 % dose
  % Dose in Whole Organ: Liver: 0.98 % dose
  % Dose in Whole Organ: One Femur: 1.21 % dose
  % Dose: Urine: 18.0 % dose
  % dose in whole organ: Blood (7% of body weight): 7.08 % dose
  % dose in whole organ: Bone(Avg) (10% of body weight): 49.4 % dose
  % dose in whole organ: Marrow (2.2% of body weight): 0.76 % dose
  % dose in whole organ: Muscle (43% of body weight): 8.8 % dose
  Bone/Muscle ratio: 32
  Ratio Bone/Blood: 6.4
  Ratio Bone/Marrow: 19
4 Hrs
  % Dose in Whole Organ: Kidneys: 0.34 % dose
  % Dose in Whole Organ: Liver: 0.62 % dose
  % Dose in Whole Organ: One Femur: 1.25 % dose
  % Dose: Urine: 22.7 % dose
  % dose in whole organ: Blood (7% of body weight): 3.85 % dose
  % dose in whole organ: Bone(Avg) (10% of body weight): 68.1 % dose
  % dose in whole organ: Marrow (2.2% of body weight): 0.50 % dose
  % dose in whole organ: Muscle (43% of body weight): 6.46 % dose
  Bone/Muscle ratio: 47
  Ratio Bone/Blood: 13
  Ratio Bone/Marrow: 32
  Ratio Callus/N. Femur: 7
  Ratio Callus/N. Tibia: 8
  Ratio Plus/Blood: 81
24 Hrs
  % Dose in Whole Organ: Kidneys: 0.03 % dose
  % Dose in Whole Organ: Liver: 0.04 % dose
  % Dose in Whole Organ: One Femur: 0.93 % dose
  % dose in whole organ: Blood (7% of body weight): 0.29 % dose
  % dose in whole organ: Bone(Avg) (10% of body weight): 51.9 % dose
  % dose in whole organ: Marrow (2.2% of body weight): 0.10 % dose
  % dose in whole organ: Muscle (43% of body weight): 1.00 % dose
  Bone/Muscle ratio: 227
  Ratio Bone/Blood: 134
  Ratio Bone/Marrow: 119
